Experimental data published in patent publication US20250361217A1, “FATTY ACID COMPOUNDS” (University of Pittsburgh - Of the Commonwealth System of …, priority 2022, published 2025).

How the values were obtained:
[1] = test system: HFD model in C57BL/6J mice; assay: Glucose tolerance test (GTT) in HFD NAFLD mouse model; format: in vivo
Description: (§1) Male C57BL/6J mice were purchased from Jackson Laboratory (Bar Harbor, ME, USA). Mice were acclimated for a week before being randomized to receive either a low-fat diet (LFD) or a high-fat diet (HFD) purchased from Research Diets (New Brunswick, NJ, USA). Obesity was induced by the HFD (D12492, with 60% of the adjusted calories derived from fat) for 16 weeks beginning at age of 8 weeks. Age-matched controls were maintained on a LFD (D12450J, matching the sucrose level of D12492). While maintaining the diet, mice under HFD were divided into 4 groups (n=8 per group) and were treated every 2 days by oral gavage for 7 weeks with 100 μl of 11D3 (50 mg/kg), 11U3 (50 mg/kg), or 11U3-2M (50 mg/kg) formulated in a solution of 2:1 of polyethylene glycol (Fisher Scientific, PEG400 #p167-1) and saline, containing 1.5% of octanoic acid (TCI, #00027). Control groups received 100 μl of PEG400/saline/octanoic acid as the vehicle (Veh). LFD mice were divided into 2 groups (n=8 per group) and treated with veh or 11D3 (50 mg/kg) to detect any effect of natural FuFA in LFD. Mice were grouped to start at the same weight mean before starting the treatment. During and before gavage treatment, mice were fed ad libitum and given free access to water. Food intake, water consumption, and mouse weight were monitored every week. At 20 weeks (4 weeks of treatment), a glucose tolerance test (GTT) was performed on all cohorts. After 2 weeks of recovery (22 weeks), a whole-body composition was performed using EchoMRI™-100H. At the end of the 23 weeks study, mice were euthanized with isoflurane followed by laparotomy. The blood was collected, and mice were perfused using 0.9% NaCl. Organs were harvested and snap-frozen in liquid nitrogen gas and stored at −80° C. for further analysis. The Cellerusher (Cell Crusher, Schull, Ireland) tissue pulverizer was used to reduce frozen tissues to a fine, easily recoverable powder using dry ice. For immunohistochemistry, the same liver lobe for every mouse was fixed in Formalin 10% (Fisher Chemical, #SF98-4) for 48h, followed by 75% ethanol baths before paraffin embedding.
GTT was performed on mice fasted for 5h. Mice were injected intraperitoneally with filter-sterilized 1.5 g/kg glucose in 0.9% NaCl. Blood glucose levels were measured using a hand-held glucometer (Accu-Chek Aviva, Roche Diagnostics, Indianapolis, IN, USA) at 0, 20, 40, 60, 90, and 120 min.

[2] = test system: HFD model in C57BL/6J mice; assay: Plasma insulin, metabolic hormones, AST/ALT, TNF-α in HFD mice; format: in vivo
Description: as §1
After collection, red blood cells and plasma were separated by centrifugation for 5 min at 7500 g at 4° C., aliquoted, and stored at −80° C. Insulin levels were measured by ELISA (Invitrogen, #EMINS) using 50 μl of plasma as per the manufacturer's instructions. Aspartate aminotransferase (AST) and alanine aminotransferase (ALT) levels were both measured using 5 μl of plasma with ELISA (Abcam, #ab263882 and #ab282882, respectively). Metabolic hormones were determined using Luminex xMAP technology (Milliplex mouse metabolic hormone expanded panel #MMHE-44K, Millipore, Burlington, MA, USA). The multiplex metabolic hormones plate was measured as per the manufacturer's instructions.

liver gene expression = assay: RT-qPCR of liver genes; format: in vivo, mice; settings: liver RT-qPCR vs HFD+veh
Experimental: Total RNA was extracted using 50 mg of frozen liver powder. The powder was homogenized in 1 mL of TRIzol solution (Invitrogen, #15-596-026) and 200 μl of chloroform, shaken vigorously for 15 seconds, and incubate at RT for 2-3 min. Lysates were centrifuged at 12000 g for 15 min at 4° C. The upper aqueous phase was transferred in a new ice-cold tube and diluted with 500 μl of ice-cold isopropyl alcohol and incubate at RT for 10 min. Tubes were centrifuged at 12000 g for 10 min at 4° C. The RNA pellet was washed twice using ice-cold 75% ethanol and centrifugation for 5 min at 7500 g at 4° C. The RNA pellet was dissolved in RNase-free H2O and the concentration was measured using Nanodrop 2000 (Thermo Fisher Scientific). […] The RNA sample (1 μg) was subjected to reverse transcription with the iScript cDNA synthesis kit. The TaqMan gene expression assays-on-demand system (Applied Biosystems, Foster City, CA, USA) was used for gene expression assessment by quantitative PCR (qPCR) using GAPDH as housekeeping gene using the comparative Ct method.

Question: Which results are given for CCCc1ccc(CCCCCCCCCC(C)(C)C(=O)O)o1 [11U3-2M, 2,2-Dimethyl-11-(5-propylfuran-2-yl)undecanoic acid]?
Answer: blood glucose clearance measured by GTT compared to veh ([1]; 50 mg/kg gavage every 2 days, after 4 weeks of treatment): significantly improved; decrease in glucose area under the curve from 0 to 120 min vs veh ([1]; 50 mg/kg, 4 weeks): 24%; fasting blood glucose ([1]; 50 mg/kg, 4 weeks): trend in decreased glucose; less glucose in GTT vs veh ([1]; 20 min time point, 50 mg/kg, 4 weeks): 18%; less glucose in GTT vs veh ([1]; 40 min time point, 50 mg/kg, 4 weeks): 26%; less glucose in GTT vs veh ([1]; 60 min time point, 50 mg/kg, 4 weeks): 22%; lower insulin plasma level compared to veh (ELISA) ([2]; 50 mg/kg): 68%; plasma level of AST ([2]; 50 mg/kg): significant reduction; plasma level of TNF-α ([2]; 50 mg/kg): significant reduction; lower plasma C-peptide 2 compared to veh ([2]; 50 mg/kg, milliplex): 43%; lower plasma gastric inhibitory polypeptide (GIP) compared to veh ([2]; 50 mg/kg, milliplex): 36%; liver enzyme ALT ([2]; FIG. 3D legend): improving liver enzymes (AST and ALT); LncRNA GM10804 decreased (liver gene expression): 3.3 fold; LncRNA GM15441 increased (liver gene expression): 320 fold; PDK4 increase (liver gene expression): 9.3 fold
